Values joined by “and” are separate entries in the source; they are usually repeats but may differ in a detail not shown here. Equal entries are not always repeated. Structures can show the parent of a compound that is named as a salt.
How the values were obtained:
[1] = test system: SFV-Rluc
[2] = test system: CHIKV replicon; experiment: microbe, parasite or virus in culture; format: cell-based, Chikungunya virus (CHIKV)

Compound	SFV replication % left (surviving fraction, remaining percentage of SFV replication) [1]	CHIKV replicon % left [2]
CC(=O)N(c1onc(C)c1C)S(=O)(=O)c1ccc(N)cc1 [Acetylsulfisoxazole]	40.4%	82.1%
C=CCC1(CC=C)C(=O)NC(=O)NC1=O [Allobarbital]	45.6%	121.1%
O=c1cc(-c2ccccc2)oc2c1ccc1ccccc12 [Alphanaphthoflavone]	14.6%	30.8%
CCC(CN(C)C)(CN(C)C)OC(=O)c1ccccc1.Cl [Amydricaine hydrochloride]	43.4%	74.3%
c1ccc(CN(CC2=NCCN2)c2ccccc2)cc1 [Antazoline hydrochloride]	38.7%	100.5%
Cc1cc(=O)n(-c2ccccc2)n1C [Antipyrine]	60.1%	102.6%
COC(=O)C1=CCCN(C)C1 [Arecoline hydrobromide]	83.6%	101.1%
C[N+]1(C)[C@@H]2CC[C@H]1C[C@@H](OC(=O)C(CO)c1ccccc1)C2 (some centres unmarked) [Atropine methyl nitrate]	46.8%	61.7%
CCCCNCC(O)c1ccc(O)cc1 (centres unmarked) [Bamethan]	67.1%	96.9%
CCC1(CC)C(=O)NC(=O)NC1=O [Barbital]	64.7%	106.1%
O=C1CC(=O)NC(=O)N1 [Barbituric acid]	48.8%	88.4%
CCOC(=O)c1ccc(N)cc1 [Benzocaine]	43.4%	85.4%
O=C(O)c1ccccc1 [Benzoic acid]	71.6%	99.1%
COc1c2ccoc2cc2oc(=O)ccc12 [Bergapten, 5-Methoxypsoralen]	46.8%	100.5%
CN(Cc1cc(Br)cc(Br)c1N)C1CCCCC1 [Bromhexine hydrochloride]	64.8%	82.8%
CCCCNC(=O)c1ccc(Cl)cc1O [Buclosamide]	49.6%	100.6%
CC(C)(C)NCC(O)COc1ccccc1C#N (centres unmarked) [Bunitrolol]	40.7%	58.9%
CS(=O)(=O)OCCCCOS(C)(=O)=O [Busulfan]	51.8%	100.5%
CCCCC1(CC)C(=O)NC(=O)NC1=O [Butethal]	45.2%	78.2%
CCC(C)NCC(O)c1ccc2c(c1)CCCC2 (centres unmarked) [Butidrine]	73.1%	89.2%

Compound	SFV replication % left (surviving fraction, remaining percentage of SFV replication) [1]	CHIKV replicon % left [2]
CCCCOC(=O)c1ccc(N)cc1 [Butyl 4-Aminobenzoate]	76.6%	102.7%
COc1ccc(O)c(C(C)(C)C)c1 [Butylated hydroxyanisole]	66.8%	79.9%
Cc1cc(C(C)(C)C)c(O)c(C(C)(C)C)c1 [Butylated hydroxytoluene]	72.6%	47.8%
O=C(O)/C=C/c1ccc(O)c(O)c1 [Caffeic acid]	98.7%	85.2%
CCCCNc1ccc(C(=O)OCCN(C)C)cc1 [Cainopan, p-Butylaminobenzoyldimethylaminoethanol]	63.8%	82.2%
CC(C)(CO)[C@@H](O)C(=O)NCCC(=O)O [Calcium pantothenate]	67.9%	89.1%
CC[C@@]1(O)C(=O)OCc2c1cc1n(c2=O)Cc2cc3ccccc3nc2-1 [Camptothecin]	87.7%	100.4%
NC(=O)N1c2ccccc2C=Cc2ccccc21 [Carbamazepine]	57.2%	100.2%
CC(C)(C)NCC(O)COc1cccc2c1CCC(=O)N2 (centres unmarked) [Carteolol hydrochloride]	67.2%	78.1%
Oc1ccccc1O [Catechol]	58.4%	77.7%
CCCCCCCCCCCCCCCC[N+](C)(C)C [Cetrimonium bromide]	75.0%	80.5%
O=C(N[C@H](CO)[C@H](O)c1ccc([N+](=O)[O-])cc1)C(Cl)Cl [Chloramphenicol]	73.8%	53.2%
CNC1=Nc2ccc(Cl)cc2C(c2ccccc2)=[N+]([O-])C1 [Chlordiazepoxide]	54.3%	100.6%
CC(C)(O)C(Cl)(Cl)Cl [Chlorobutanol]	84.2%	95.1%
NS(=O)(=O)c1cc2c(cc1Cl)N=CNS2(=O)=O [Chlorothiazide]	90.3%	82.1%
CN(C)CC/C=C1/c2ccccc2Sc2ccc(Cl)cc21 [Chlorprothixene hydrochloride]	90.3%	78.2%
O=C(O)c1cc(-c2ccccc2)nc2ccccc12 [Cinchophen]	65.1%	51.2%
Cl.Cl.OCCN1CCN(CC/C=C2/c3ccccc3Sc3ccc(C(F)(F)F)cc32)CC1 [Cis(Z)-Flupentixol dihydrochloride]	92.6%	102.7%
COc1cc(OC)c2ccc(=O)oc2c1 [Citropten]	67.4%	106.4%
Oc1c(I)cc(Cl)c2cccnc12 [Clioquinol]	71.9%	32.7%

Compound	SFV replication % left (surviving fraction, remaining percentage of SFV replication) [1]	CHIKV replicon % left [2]
Cl.Cl.OCCN1CCN(CCC=C2c3ccccc3Sc3ccc(Cl)cc32)CC1 [Clopenthixol dihydrochloride]	55.2%	40.1%
CC(C)NCC(O)c1ccccc1Cl.Cl.O (centres unmarked) [Clorprenaline hydrochloride]	63.7%	102.2%
CCCNc1ccc(C(=O)OCC(O)CN(C)C)cc1 (centres unmarked) [Cornecaine]	77.3%	80.5%
CCN(CC)c1ccc2cc(-c3nc4ccccc4[nH]3)c(=O)oc2c1 [Coumarin 7]	37.3%	51.8%
Cc1cc(=O)oc2c3c4c(cc12)CCCN4CCC3 [Coumarin 102]	34.6%	65.4%
O=c1oc2c3c4c(cc2c2c1CCC2)CCCN4CCC3 [Coumarin 106]	82.1%	91.5%
O=c1cc(C(F)(F)F)c2cc3c4c(c2o1)CCCN4CCC3 [Coumarin 153]	52.6%	96.1%
O=c1ccc2ccccc2o1 [Coumarin]	68.8%	85.0%
Oc1cc(O)c2cc(O)c(-c3ccc(O)c(O)c3)[o+]c2c1 [Cyanidin chloride]	24.5%	54.8%
O=S(=O)(O)NC1CCCCC1 [Cyclamic acid]	74.9%	107.5%
OCc1ccccc1O[C@@H]1O[C@H](CO)[C@@H](O)[C@H](O)[C@H]1O [D(-)-Salicin]	104.4%	99.4%
O=c1c(-c2ccc(O)cc2)coc2cc(O)ccc12 [Daidzein]	76.6%	104.4%
COc1ccc2ccc(=O)oc2c1O [Daphnetin-7-methylether]	105.6%	89.9%
O=c1ccc2ccc(O)c(O)c2o1 [Daphnetin]	90.6% and 81.7%	103.7% and 92.1%
C[C@H](CCC(=O)O)[C@H]1CC[C@H]2[C@@H]3CC[C@@H]4C[C@H](O)CC[C@]4(C)[C@H]3C[C@H](O)[C@]12C [Deoxycholic acid]	86.5%	100.8%
Cc1cc(N)c2ccccc2[n+]1CCCCCCCCCC[n+]1c(C)cc(N)c2ccccc21 [Dequalinium chloride]	62.5%	39.4%
NCCN1C(=O)CN=C(c2ccccc2F)c2cc(Cl)ccc21 [Desalkylflurazepam]	68.5%	74.3%
CN(C)CC[C@@H](c1ccc(Br)cc1)c1ccccn1 [Dexbrompheniramine maleate]	69.6%	100.4%

Source: publication PMC3242765, “Inhibitors of Alphavirus Entry and Replication Identified with a Stable Chikungunya Replicon Cell Line and Virus-Based Assays” (PLoS ONE, 2011)
